From PubChem BioAssay (NCI)
Where “and” joins values, the source holds several entries; their conditions need not be identical. Equal entries are not always repeated.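 Growth conditions: 96-well plates. Treatment: test compound, 48 hours, 5 concentrations. Analysis: linear interpolation between bracketing concentrations; unreached endpoints set to highest concentration. The concentration for 50% growth inhibition is given as GI50. TGI is the concentration that stops growth completely.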

Assays:
Experiment in all cases: DTP human tumour cell line panel, 48 h
[1] = system: HOP-62 NSCLC
[2] = system: NCI-H23 lung
[3] = system: NCI-H226 lung
[4] = system: CAKI-1 renal
[5] = system: 786-0 renal
[6] = system: OVCAR-5 ovarian
[7] = system: SNB-19 CNS
[8] = system: A498 renal
[9] = system: ACHN renal
[10] = system: RXF 393 renal

C[C@@H]1CC[C@@H]2[C@@H]1[C@H](OC(=O)/C=C/C1CCCCC1)[C@]1(C3CCCCC3)C[C@@H](OC(=O)CO)[C@@]2(C)O1
GI50 [1]: 14.6 µM
TGI [1]: 27.5 µM
GI50 [2]: 16.6 µM
TGI [2]: 31.7 µM
GI50 [3]: 14.3 µM
TGI [3]: 28 µM
GI50 [4]: 0.034 µM
TGI [4]: 14.8 µM
GI50 [5]: 12 µM
TGI [5]: 24.1 µM
GI50 [6]: 15.8 µM
TGI [6]: 29.9 µM
GI50 [7]: 14.4 µM
TGI [7]: 27 µM
GI50 [8]: 0.0209 µM
TGI [8]: 0.0801 µM

c1ccc2c(N=NSc3ncnc4nc[nH]c34)c3ccccc3nc2c1
GI50 [1]: 1.2 µM
TGI [1]: 5.71 µM
GI50 [2]: 1.7 µM
TGI [2]: 5.76 µM
GI50 [3]: 0.641 µM
TGI [3]: 2.31 µM
GI50 [4]: 1.76 µM
TGI [4]: 7.07 µM
GI50 [9]: 0.609 µM
TGI [9]: 7.03 µM
GI50 [5]: 1.79 µM
TGI [5]: 13.8 µM
GI50 [10]: 0.967 µM
TGI [10]: 2.87 µM
GI50 [6]: 1.89 µM
TGI [6]: 6.3 µM
GI50 [7]: 1.36 µM
TGI [7]: 13 µM
GI50 [8]: 1.13 µM
TGI [8]: 2.6 µM

NC(=O)NNC/C(Cl)=C(\Cl)C(=O)O
TGI [1]: > 100 µM
TGI [2]: > 100 µM
TGI [3]: > 100 µM
TGI [4]: > 100 µM
TGI [9]: > 100 µM
TGI [5]: > 100 µM
TGI [10]: > 100 µM
TGI [6]: > 100 µM
TGI [7]: > 100 µM
TGI [8]: > 100 µM

N#C/C(=C\c1ccc[nH]1)c1cc(-c2ccc(Cl)cc2)nn1-c1ccccc1
GI50 [1]: 7.63 µM
TGI [1]: 24.2 µM
GI50 [2]: 4.19 µM
TGI [2]: 22.1 µM
GI50 [3]: 7.71 µM
TGI [3]: 37.2 µM
GI50 [4]: 3.16 µM
TGI [4]: > 100 µM
GI50 [9]: 5.55 µM
TGI [9]: 47.5 µM
GI50 [5]: 6.06 µM
TGI [5]: 27.5 µM
GI50 [10]: 6.89 µM
TGI [10]: 24.2 µM
GI50 [6]: 15.7 µM
TGI [6]: 50.3 µM
GI50 [7]: 9.35 µM
TGI [7]: > 56.9 µM
GI50 [8]: 2.62 µM
TGI [8]: 12.6 µM

Nc1nc(N)c2c(ccc3c2ccn3Cc2cccc([N+](=O)[O-])c2)n1
GI50 [1]: 0.0654 µM
TGI [1]: 1.87 µM
GI50 [2]: 0.0566 µM
TGI [2]: 2.46 µM
GI50 [3]: 0.272 µM
TGI [3]: 2.42 µM
GI50 [4]: 0.0562 µM
TGI [4]: 1.9 µM
GI50 [9]: 0.0372 µM
TGI [9]: 1.74 µM
GI50 [5]: 0.0411 µM
TGI [5]: 1.5 µM
GI50 [6]: 0.0504 µM
TGI [6]: 2.36 µM
GI50 [7]: 0.0898 µM
TGI [7]: 2.42 µM
GI50 [8]: 0.166 µM and 0.224 µM
TGI [8]: 1.97 µM and 1.94 µM

O=C(Nc1ccc(Cl)c(Cl)c1)c1ccc(NC2=C(Cl)C(=O)N(Cc3ccccc3)C2=O)cc1
GI50 [1]: 17.4 µM
TGI [1]: 31.3 µM
GI50 [2]: 14.2 µM
TGI [2]: 27.4 µM
GI50 [3]: 7.33 µM
TGI [3]: 20.8 µM
GI50 [4]: 3 µM
TGI [4]: 12.6 µM
GI50 [5]: 7.74 µM
TGI [5]: 20.1 µM
GI50 [6]: 2.95 µM
TGI [6]: 8.91 µM
GI50 [7]: 52.9 µM
TGI [7]: > 100 µM
GI50 [8]: 17.6 µM
TGI [8]: 36.8 µM

O=C1C2=C(C(=O)c3ccccc31)C(O)(S(=O)(=O)O)C(O)(S(=O)(=O)O)C1N=CC=CC21 (stereo not given)
GI50 [1]: 5.36 µM and 3.03 µM
TGI [1]: 31.8 µM and 19.2 µM
GI50 [2]: 3.87 µM and 3.49 µM
TGI [2]: 27.6 µM and 18.8 µM
GI50 [3]: 9.22 µM and 11.9 µM
TGI [3]: 69.2 µM and 27.7 µM
GI50 [4]: 1.72 µM and 0.315 µM
TGI [4]: 9.4 µM and 1.87 µM
GI50 [9]: 4.47 µM and 3.83 µM
TGI [9]: 39.2 µM and 19.3 µM
GI50 [5]: 5.03 µM and 4.29 µM
TGI [5]: 25 µM and 17.4 µM
GI50 [10]: 5.73 µM and 2.98 µM
TGI [10]: 28.6 µM and 11.9 µM
GI50 [6]: 8.7 µM and 9.31 µM
TGI [6]: > 100 µM and 45.7 µM
GI50 [7]: 4.28 µM and 5.5 µM
TGI [7]: 44.4 µM and > 100 µM
GI50 [8]: 10.1 µM and 3.3 µM
TGI [8]: 40.1 µM and 12.7 µM

COC(=O)[C@]1(C)CCC[C@@]2(C)C3=C(CC[C@H]12)C[C@@H](CC(OC(C)=O)OC(C)=O)[C@@H](C)C3
GI50 [1]: 11.3 µM
TGI [1]: 23.4 µM
GI50 [2]: 9.15 µM
TGI [2]: 16.7 µM
GI50 [3]: 11.2 µM
TGI [3]: 31.1 µM
GI50 [4]: 8.73 µM
TGI [4]: 18.2 µM
GI50 [9]: 13.9 µM
TGI [9]: > 28.2 µM
GI50 [5]: 8.97 µM
TGI [5]: 17.2 µM
GI50 [10]: 7.03 µM
TGI [10]: 16.1 µM
GI50 [6]: 9.89 µM
TGI [6]: 18.4 µM
GI50 [7]: 13.5 µM
TGI [7]: 32.1 µM
GI50 [8]: 11.5 µM
TGI [8]: 19.9 µM

O=C1/C=C/[C@@H](O)[C@@H]2C[C@@H](O)C[C@H]2/C=C/CCC[C@H](CCO)O1
GI50 [1]: 0.237 µM
TGI [1]: > 31.6 µM
GI50 [2]: 0.227 µM
TGI [2]: 2.3 µM
GI50 [3]: 0.0684 µM
TGI [3]: 0.287 µM
GI50 [4]: 0.324 µM
TGI [4]: 3.43 µM
GI50 [9]: 0.343 µM
TGI [9]: > 100 µM
GI50 [5]: 0.0362 µM
TGI [5]: 0.142 µM
GI50 [10]: 0.0272 µM
TGI [10]: 0.117 µM
GI50 [6]: 0.396 µM
TGI [6]: > 100 µM
GI50 [7]: 0.377 µM
TGI [7]: > 100 µM
GI50 [8]: 0.0442 µM
TGI [8]: 0.274 µM

O=C(Nc1nc2c(C(F)(F)F)cccc2s1)c1cc(Cl)ccc1O
GI50 [1]: 0.312 µM
TGI [1]: 19.3 µM
GI50 [2]: 0.296 µM
TGI [2]: 1.44 µM
GI50 [3]: 0.269 µM
TGI [3]: 1.31 µM
GI50 [9]: 0.295 µM
TGI [9]: 0.961 µM
GI50 [5]: 0.337 µM
TGI [5]: 12.2 µM
GI50 [10]: 0.257 µM
TGI [10]: 0.772 µM
GI50 [6]: 0.317 µM
TGI [6]: 25.7 µM
GI50 [7]: 0.345 µM
TGI [7]: 65.6 µM
GI50 [8]: 0.181 µM
TGI [8]: 0.519 µM

CC(=O)C1=C(C)N(Cc2ccccc2)C2(O)C=CC(=O)C3=C(O)c4ccccc4C(=O)C312 (stereo not given)
GI50 [1]: 13.5 µM
TGI [1]: 34.3 µM
GI50 [2]: 7.53 µM
TGI [2]: 24.7 µM
GI50 [3]: 8.12 µM
TGI [3]: 22.1 µM
GI50 [4]: 2.47 µM
TGI [4]: 6.37 µM
GI50 [5]: 2.26 µM
TGI [5]: 4.26 µM
GI50 [10]: 3.27 µM
TGI [10]: 17.5 µM
GI50 [6]: 6.28 µM
TGI [6]: 25 µM
GI50 [7]: 16 µM
TGI [7]: 44.1 µM
GI50 [8]: 22.7 µM
TGI [8]: 38.1 µM

CCN1CCN(c2ccc(NC(=O)Nc3nc4ccc(-c5ccccc5OC)cc4s3)cc2)CC1
GI50 [2]: 1.67 µM
TGI [2]: 3.65 µM
GI50 [3]: 2.09 µM
TGI [3]: 4.52 µM
GI50 [9]: 1.74 µM
TGI [9]: 3.11 µM
GI50 [5]: 1.8 µM
TGI [5]: 3.28 µM
GI50 [10]: 1.7 µM
TGI [10]: 3.3 µM
GI50 [6]: 1.8 µM
TGI [6]: 3.37 µM
GI50 [7]: 2.03 µM
TGI [7]: 3.65 µM
GI50 [8]: 1.8 µM
TGI [8]: 3.61 µM

CC1=CC(C)=N/C(=N/S(=O)(=O)c2cc(C)c(Cl)cc2SCc2ccccc2)NN1
GI50 [1]: 82.5 µM
TGI [1]: > 100 µM
GI50 [2]: > 100 µM
TGI [2]: > 100 µM
GI50 [3]: > 100 µM
TGI [3]: > 100 µM
GI50 [4]: > 100 µM
TGI [4]: > 100 µM
GI50 [9]: > 100 µM
TGI [9]: > 100 µM
GI50 [5]: > 100 µM
TGI [5]: > 100 µM
GI50 [6]: > 100 µM
TGI [6]: > 100 µM
GI50 [7]: > 100 µM
TGI [7]: > 100 µM
GI50 [8]: > 100 µM
TGI [8]: > 100 µM
